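Results reflect a 48-hour exposure of cells in 96-well plates to compound at five concentrations. The concentration for full growth arrest is given as TGI.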
Columns and labels:
Assay in all cases: NCI anticancer screen, dose series, 48 h
786-0 renal = tested on: 786-0 renal
A498 renal = tested on: A498 renal
A549 NSCLC = tested on: A549 NSCLC
ACHN renal = tested on: ACHN renal
BT-549 breast = tested on: BT-549 breast
CAKI-1 renal = tested on: CAKI-1 renal
COLO 205 colon = tested on: COLO 205 colon
DU-145 prostate = tested on: DU-145 prostate
EKVX NSCLC = tested on: EKVX NSCLC
HCC-2998 colon = tested on: HCC-2998 colon
HCT-116 colon = tested on: HCT-116 colon
HCT-15 colon = tested on: HCT-15 colon
HL-60(TB) leukemia = tested on: HL-60(TB) leukemia
HOP-62 NSCLC = tested on: HOP-62 NSCLC
HOP-92 NSCLC = tested on: HOP-92 NSCLC
HS 578T breast = tested on: HS 578T breast
HT29 colon = tested on: HT29 colon
IGROV1 ovarian = tested on: IGROV1 ovarian
K-562 leukemia = tested on: K-562 leukemia
KM12 colon = tested on: KM12 colon
LOX IMVI melanoma = tested on: LOX IMVI melanoma
M14 melanoma = tested on: M14 melanoma
MALME-3M melanoma = tested on: MALME-3M melanoma
MCF7 breast = tested on: MCF7 breast
MDA-MB-231 breast = tested on: MDA-MB-231 breast
MDA-MB-435 = tested on: MDA-MB-435
MDA-N = tested on: MDA-N
NCI-H226 lung = tested on: NCI-H226 lung
NCI-H23 lung = tested on: NCI-H23 lung
NCI-H460 lung = tested on: NCI-H460 lung
NCI-H522 lung = tested on: NCI-H522 lung
NCI/ADR-RES ovarian = tested on: NCI/ADR-RES ovarian
OVCAR-3 ovarian = tested on: OVCAR-3 ovarian
OVCAR-4 ovarian = tested on: OVCAR-4 ovarian
OVCAR-5 ovarian = tested on: OVCAR-5 ovarian
OVCAR-8 ovarian = tested on: OVCAR-8 ovarian
PC-3 prostate = tested on: PC-3 prostate
RPMI-8226 leukemia = tested on: RPMI-8226 leukemia
SF-268 CNS = tested on: SF-268 CNS
SF-295 CNS = tested on: SF-295 CNS
SF-539 CNS = tested on: SF-539 CNS
SK-MEL-2 melanoma = tested on: SK-MEL-2 melanoma
SK-MEL-28 melanoma = tested on: SK-MEL-28 melanoma
SK-MEL-5 melanoma = tested on: SK-MEL-5 melanoma
SK-OV-3 ovarian = tested on: SK-OV-3 ovarian
SN12C renal = tested on: SN12C renal
SNB-19 CNS = tested on: SNB-19 CNS
SNB-75 CNS = tested on: SNB-75 CNS
SR leukemia = tested on: SR leukemia
SW-620 colon = tested on: SW-620 colon
T-47D breast = tested on: T-47D breast
TK-10 renal = tested on: TK-10 renal
U251 CNS = tested on: U251 CNS
UACC-257 melanoma = tested on: UACC-257 melanoma
UACC-62 melanoma = tested on: UACC-62 melanoma
UO-31 renal = tested on: UO-31 renal
CCRF-CEM leukemia = tested on: CCRF-CEM leukemia
MOLT-4 leukemia = tested on: MOLT-4 leukemia
RXF 393 renal = tested on: RXF 393 renal

COC(=O)C1CCC(=O)N1C(c1ccccc1)c1ccc(OC)c(OC)c1 (configuration not stated)
TGI (786-0 renal): > 100 µM
TGI (A498 renal): > 100 µM
TGI (A549 NSCLC): > 100 µM
TGI (ACHN renal): > 100 µM
TGI (BT-549 breast): > 100 µM
TGI (CAKI-1 renal): > 100 µM
TGI (COLO 205 colon): > 100 µM
TGI (DU-145 prostate): > 100 µM
TGI (EKVX NSCLC): > 100 µM
TGI (HCC-2998 colon): > 100 µM
TGI (HCT-116 colon): > 100 µM
TGI (HCT-15 colon): > 100 µM
TGI (HL-60(TB) leukemia): > 100 µM
TGI (HOP-62 NSCLC): > 100 µM
TGI (HOP-92 NSCLC): > 100 µM
TGI (HS 578T breast): > 100 µM
TGI (HT29 colon): > 100 µM
TGI (IGROV1 ovarian): > 100 µM
TGI (K-562 leukemia): > 100 µM
TGI (KM12 colon): > 100 µM
TGI (LOX IMVI melanoma): > 100 µM
TGI (M14 melanoma): > 100 µM
TGI (MALME-3M melanoma): > 100 µM
TGI (MCF7 breast): > 100 µM
TGI (MDA-MB-231 breast): > 100 µM
TGI (MDA-MB-435): > 100 µM
TGI (MDA-N): > 100 µM
TGI (NCI-H226 lung): > 100 µM
TGI (NCI-H23 lung): > 100 µM
TGI (NCI-H460 lung): > 100 µM
TGI (NCI-H522 lung): > 100 µM
TGI (NCI/ADR-RES ovarian): > 100 µM
TGI (OVCAR-3 ovarian): > 100 µM
TGI (OVCAR-4 ovarian): > 100 µM
TGI (OVCAR-5 ovarian): > 100 µM
TGI (OVCAR-8 ovarian): > 100 µM
TGI (PC-3 prostate): > 100 µM
TGI (RPMI-8226 leukemia): > 100 µM
TGI (SF-268 CNS): > 100 µM
TGI (SF-295 CNS): > 100 µM
TGI (SF-539 CNS): > 100 µM
TGI (SK-MEL-2 melanoma): > 100 µM
TGI (SK-MEL-28 melanoma): > 100 µM
TGI (SK-MEL-5 melanoma): > 100 µM
TGI (SK-OV-3 ovarian): > 100 µM
TGI (SN12C renal): > 100 µM
TGI (SNB-19 CNS): > 100 µM
TGI (SNB-75 CNS): > 100 µM
TGI (SR leukemia): > 100 µM
TGI (SW-620 colon): > 100 µM
TGI (T-47D breast): > 100 µM
TGI (TK-10 renal): > 100 µM
TGI (U251 CNS): > 100 µM
TGI (UACC-257 melanoma): > 100 µM
TGI (UACC-62 melanoma): > 100 µM
TGI (UO-31 renal): > 100 µM

Cc1cccc(/C=N/NC(=S)Nc2ccccc2)n1
TGI (786-0 renal): 9.14 µM
TGI (A498 renal): 67 µM
TGI (A549 NSCLC): > 100 µM
TGI (ACHN renal): 13.7 µM
TGI (BT-549 breast): 75 µM
TGI (CAKI-1 renal): > 42.3 µM
TGI (CCRF-CEM leukemia): > 23.3 µM
TGI (DU-145 prostate): > 67.7 µM
TGI (EKVX NSCLC): > 49.3 µM
TGI (HCC-2998 colon): > 61.6 µM
TGI (HCT-15 colon): > 38.4 µM
TGI (HL-60(TB) leukemia): > 24.7 µM
TGI (HOP-62 NSCLC): 17.8 µM
TGI (HOP-92 NSCLC): > 92.9 µM
TGI (HS 578T breast): > 100 µM
TGI (HT29 colon): > 100 µM
TGI (IGROV1 ovarian): > 25 µM
TGI (K-562 leukemia): > 100 µM
TGI (KM12 colon): > 100 µM
TGI (LOX IMVI melanoma): 21.4 µM
TGI (M14 melanoma): 8.05 µM
TGI (MALME-3M melanoma): 64.2 µM
TGI (MCF7 breast): > 25.7 µM
TGI (MDA-MB-231 breast): > 26.1 µM
TGI (MDA-MB-435): > 100 µM
TGI (MDA-N): > 100 µM
TGI (MOLT-4 leukemia): > 100 µM
TGI (NCI-H226 lung): > 25 µM
TGI (NCI-H23 lung): > 72.7 µM
TGI (NCI-H460 lung): 9.13 µM
TGI (NCI/ADR-RES ovarian): 10.8 µM
TGI (OVCAR-3 ovarian): 13.6 µM
TGI (OVCAR-4 ovarian): > 90.4 µM
TGI (OVCAR-5 ovarian): > 100 µM
TGI (OVCAR-8 ovarian): 8.92 µM
TGI (PC-3 prostate): > 91.1 µM
TGI (RPMI-8226 leukemia): 75.6 µM
TGI (RXF 393 renal): 28.1 µM
TGI (SF-268 CNS): > 100 µM
TGI (SF-295 CNS): > 100 µM
TGI (SF-539 CNS): 10.4 µM
TGI (SK-MEL-2 melanoma): 36 µM
TGI (SK-MEL-28 melanoma): > 100 µM
TGI (SK-MEL-5 melanoma): > 22.5 µM
TGI (SK-OV-3 ovarian): > 68.7 µM
TGI (SN12C renal): 12.3 µM
TGI (SNB-19 CNS): 98.3 µM
TGI (SNB-75 CNS): 32.3 µM
TGI (SR leukemia): > 100 µM
TGI (SW-620 colon): > 100 µM
TGI (T-47D breast): > 29.2 µM
TGI (TK-10 renal): > 95.3 µM
TGI (U251 CNS): > 54.9 µM
TGI (UACC-257 melanoma): 8.1 µM
TGI (UACC-62 melanoma): 12.5 µM
TGI (UO-31 renal): > 31.2 µM
